Experimental data: patent US6586402B1, “LH-RH peptide analogues, their uses and pharmaceutical compositions containing them” (Laboratoire Theramex, priority 1997, dated 2003)
Like-named read-outs stand apart in the source and are kept apart here. Square brackets hold non-standard residues; d marks the D form. Peptide text beside a SMILES is read from it. * marks the point of attachment. dPhe(4-Cl) = N[C@H](Cc1ccc(Cl)cc1)C(=O)O; d2Nal = N[C@H](Cc1ccc2ccccc2c1)C(=O)O; d(hCit) = NC(=O)NCCCC[C@@H](N)C(=O)O; Lys(iPr) = CC(C)NCCCC[C@H](N)C(=O)O; dCit = NC(=O)NCCC[C@@H](N)C(=O)O; tBuAla = CC(C)(C)C[C@H](N)C(=O)O; d3Pal = N[C@H](Cc1cccnc1)C(=O)O; Nicotinoyl = O=C(c1cccnc1)*

Legend:
[1] = target: LH-RH receptors (membrane fractions of pituitaries from female Sprague Dawley rats) (rat (female Sprague Dawley)) (UniProt P30969); assay: competition with [125I]-buserelin, rat pituitary membranes
[2] = target: LH-RH receptors (membrane fractions of pituitaries from female Sprague Dawley rats) (rat (female Sprague Dawley)) (UniProt P30969); assay: competition with [125I]-buserelin, rat pituitary membranes; Ki by Cheng-Prusoff
LH-RH receptors [3] = target: T1, LH-RH receptors (Rattus norvegicus, UniProt P30969); assay: biochemical
T1 sequence (P30969 1-327): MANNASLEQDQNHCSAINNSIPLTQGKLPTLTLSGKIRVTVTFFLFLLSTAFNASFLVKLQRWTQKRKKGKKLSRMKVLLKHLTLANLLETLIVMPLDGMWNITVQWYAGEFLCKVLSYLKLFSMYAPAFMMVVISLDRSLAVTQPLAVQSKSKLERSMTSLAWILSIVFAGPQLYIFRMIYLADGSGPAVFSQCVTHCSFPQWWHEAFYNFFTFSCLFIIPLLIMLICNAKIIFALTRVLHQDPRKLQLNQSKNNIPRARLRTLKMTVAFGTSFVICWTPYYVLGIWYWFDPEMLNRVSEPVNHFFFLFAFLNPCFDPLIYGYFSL

LH-RH receptors [4] = target: T1, LH-RH receptors

| pKi [1] | pKi [2] | Ki (LH-RH receptors [3]) | % of inhibition of ovulation (LH-RH receptors [4]; 0.5 μg/rat s.c.) | % of inhibition of ovulation (LH-RH receptors [4]; 1 μg/rat s.c.) | % of inhibition of ovulation (LH-RH receptors [4]; 0.25 μg/rat s.c.) | Compound | also measured |
| --- | --- | --- | --- | --- | --- | --- | --- |
| > 9 -log Ki | 9.35 -log Ki | – | – | – | – | Buserelin (peptide) | – |
| > 9 -log Ki | 9.16 -log Ki | – | – | – | – | Antide (peptide) | – |
| – | – | 0.692 nM | 20% | 69% | – | CC(=O)N[C@H](Cc1ccc2ccccc2c1)C(=O)N[C@H](Cc1ccc(Cl)cc1)C(=O)N[C@H](Cc1cccnc1)C(=O)N[C@@H](CO)C(=O)N[C@@H](CCCCNC(=O)c1cccnc1)C(=O)N[C@H](CCCCNC(=O)c1cccnc1)C(=O)N[C@@H](CC(C)C)C(=O)N[C@@H](CCCCNC(C)C)C(=O)N1CCC[C@H]1C(=O)N[C@H](C)C(N)=O [Antide, reference compound] (Ac-[d2Nal][dPhe(4-Cl)][d3Pal]SK(Nicotinoyl)[dK](Nicotinoyl)L[Lys(iPr)]P[dA]-NH2) | % of inhibition of ovulation (LH-RH receptors [4]; 2.5 μg/rat s.c.): 67%; % of inhibition of ovulation (LH-RH receptors [4]; 5 μg/rat s.c.): 100%; % of inhibition of ovulation (LH-RH receptors [4]; 10 μg/rat s.c.): 100% |
| – | – | 0.191 nM | 43% | 100% | 80% | CC(=O)N[C@H](Cc1ccc2ccccc2c1)C(=O)N[C@H](Cc1ccc(Cl)cc1)C(=O)N[C@H](Cc1cccnc1)C(=O)N[C@@H](CO)C(=O)N[C@@H](Cc1ccc(O)cc1)C(=O)N[C@H](CCCNC(N)=O)C(=O)N[C@@H](CC(C)(C)C)C(=O)N[C@@H](CCCCNC(C)C)C(=O)N1CCC[C@H]1C(=O)N[C@H](C)C(N)=O [Example 17, AcD-Nal-D-pClPhe-D-Pal-Ser-Tyr-D-Cit-Npg-IprLys-Pro-D-Ala-NH2] (Ac-[d2Nal][dPhe(4-Cl)][d3Pal]SY[dCit][tBuAla][Lys(iPr)]P[dA]-NH2) | Number of ovulating females/total number of treated females (LH-RH receptors [4]; 0.25 μg/rat s.c.): 1/5; Number of ovulating females/total number of treated females (LH-RH receptors [4]; 0.5 μg/rat s.c.): 4/7; % of inhibition of ovulation (LH-RH receptors [4]; 0.75 μg/rat s.c.): 100%; Number of ovulating females/total number of treated females (LH-RH receptors [4]; 0.75 μg/rat s.c.): 0/7; Number of ovulating females/total number of treated females (LH-RH receptors [4]; 1 μg/rat s.c.): 0/12; antiovulatory activity in words (LH-RH receptors [4]; 1 μg/rat s.c.): maximal or sub-maximal activity; dose relation of the inhibition of ovulation, in words (LH-RH receptors [4]; dose range studied, s.c.): especially active, but its effects were not related to the dose |
| > 9 -log Ki | 9.98 -log Ki | – | – | – | – | Histrelin (peptide) | – |
| – | – | 0.0676 nM | – | 100% | 20% | CC(=O)N[C@H](Cc1ccc2ccccc2c1)C(=O)N[C@H](Cc1ccc(Cl)cc1)C(=O)N[C@H](Cc1cccnc1)C(=O)N[C@@H](CO)C(=O)N[C@@H](Cc1ccc(O)cc1)C(=O)N[C@H](CCCNC(N)=O)C(=O)N[C@@H](CC(C)(C)C)C(=O)N[C@@H](CCCNC(=N)N)C(=O)N1CCC[C@H]1C(=O)N[C@H](C)C(N)=O [Example 16, AcD-Nal-D-pClPhe-D-Pal-Ser-Tyr-D-Cit-Npg-Arg-Pro-D-Ala-NH2] (Ac-[d2Nal][dPhe(4-Cl)][d3Pal]SY[dCit][tBuAla]RP[dA]-NH2) | Number of ovulating females/total number of treated females (LH-RH receptors [4]; 0.25 μg/rat s.c.): 4/5; Number of ovulating females/total number of treated females (LH-RH receptors [4]; 1 μg/rat s.c.): 0/5; antiovulatory activity in words (LH-RH receptors [4]; 1 μg/rat s.c.): maximal or sub-maximal activity |
| > 9 -log Ki | 9.9 -log Ki | – | – | – | – | Deslorelin (peptide) | – |
| – | – | 0.0776 nM | – | 100% | 40% | CC(=O)N[C@H](Cc1ccc2ccccc2c1)C(=O)N[C@H](Cc1ccc(Cl)cc1)C(=O)N[C@H](Cc1cccnc1)C(=O)N[C@@H](CO)C(=O)N[C@@H](Cc1ccc(O)cc1)C(=O)N[C@H](CCCCNC(N)=O)C(=O)N[C@@H](CC(C)(C)C)C(=O)N[C@@H](CCCNC(=N)N)C(=O)N1CCC[C@H]1C(=O)N[C@H](C)C(N)=O [Example 19, AcD-Nal-D-pClPhe-D-Pal-Ser-Tyr-D-HCit-Npg-Arg-Pro-D-Ala-NH2] (Ac-[d2Nal][dPhe(4-Cl)][d3Pal]SY[d(hCit)][tBuAla]RP[dA]-NH2) | – |
| – | – | 0.0851 nM | – | 80% | 20% | CC(=O)N[C@H](Cc1ccc2ccccc2c1)C(=O)N[C@H](Cc1ccc(Cl)cc1)C(=O)N[C@H](Cc1cccnc1)C(=O)N[C@@H](CO)C(=O)N[C@@H](Cc1ccc(O)cc1)C(=O)N[C@H](CCCCNC(N)=O)C(=O)N[C@@H](CC(C)(C)C)C(=O)N[C@@H](CCCCNC(C)C)C(=O)N1CCC[C@H]1C(=O)N[C@H](C)C(N)=O [Example 18, AcD-Nal-D-pClPhe-D-Pal-Ser-Tyr-D-HCit-Npg-IprLys-Pro-D-Ala-NH2] (Ac-[d2Nal][dPhe(4-Cl)][d3Pal]SY[d(hCit)][tBuAla][Lys(iPr)]P[dA]-NH2) | – |
| – | – | 0.589 nM | 100% | 80% | 60% | CC(=O)N[C@H](Cc1ccc2ccccc2c1)C(=O)N[C@H](Cc1ccc(Cl)cc1)C(=O)N[C@H](Cc1cccnc1)C(=O)N[C@@H](CO)C(=O)N[C@@H](CCCCNC(=O)c1cccnc1)C(=O)N[C@H](CCCCNC(=O)c1cccnc1)C(=O)N[C@@H](CC(C)(C)C)C(=O)N[C@@H](CCCCNC(C)C)C(=O)N1CCC[C@H]1C(=O)N[C@H](C)C(N)=O [Example 15, AcD-Nal-D-pClPhe-D-Pal-Ser-NicLys-D-NicLys-Npg-IprLys-Pro-D-Ala-NH2] (Ac-[d2Nal][dPhe(4-Cl)][d3Pal]SK(Nicotinoyl)[dK](Nicotinoyl)[tBuAla][Lys(iPr)]P[dA]-NH2) | % of inhibition of ovulation (LH-RH receptors [4]; 0.1 μg/rat s.c.): 0% |
